# Reference: patent publication US11129782B2, “Derivatives of PPD useful for coloring hair and skin” (National University of Singapore, priority 2017, dated 2021)
# Legend:
# [1] = test system: lysine peptide (Ac-RFAAKAA-COOH); assay: Direct Peptide Reactivity Assay, lysine peptide; details: for % of Lysine depletion, Avg / % of Lysine depletion, Rep 2 / % of Lysine depletion, Rep 3 / Reactivity Class: 1:50; for % of Lysine depletion, Rep 1: peptide 0.02 mM : test chemical 1 mM (1:50); for Reactivity Class: lysine
# Description: (§1) The mass spectrometric analysis was performed by use of a AB SCIEX QTRAP 5500 tandem mass spectrometry (MS/MS) system (AB SCIEX, Framingham, Mass., USA) operating in triple quadrupole positive mode (ESI+) equipped with an AB Sciex Turbo Ion Spray interface. Acquisition and analysis of data were performed with Analyst software ver. 1.6.2 (Applied Biosystems).
# [2] = test system: sensitized patients; assay: Patch test with 1% PPD formulation in paraffin; format: in vivo, human; details: 1% PPD patch test formulation in paraffin
# Description: This is true even after 2 days of patch test as the test field remains colourless.
# Thus there remains a need for hair and temporary skin colourings that avoid such allergic responses and may be suitable for use in subjects who show sensitivity to conventional colouring materials.
# [3] = test system: cysteine peptide (Ac-RFAACAA-COOH); assay: Direct Peptide Reactivity Assay, cysteine peptide; details: for % of Cysteine depletion, Avg / % of Cysteine depletion, Rep 2 / % of Cysteine depletion, Rep 3 / Reactivity Class: 1:10; for % of Cysteine depletion, Rep 1: peptide 0.02 mM : test chemical 0.2 mM (1:10); for Reactivity Class: cysteine
# Description: For cysteine DPRA, an additional step was performed.
# as §1
smiles,measurement,setting,value
"Nc1ccc(N)cc1 [PPD, para-phenylenediamine, reference compound]","% of Lysine depletion, Avg",[1]; 20 min,14.6%
same,"% of Lysine depletion, Rep 2",[1]; 20 min,14.4%
same,"% of Lysine depletion, Rep 3",[1]; 20 min,14.6%
same,"% of Lysine depletion, Rep 1",[1]; 20 min,14.9%
same,"% of Lysine depletion, Avg",[1]; 24 h,33.3%
same,"% of Lysine depletion, Rep 2",[1]; 24 h,33.1%
same,"% of Lysine depletion, Rep 3",[1]; 24 h,33.9%
same,"% of Lysine depletion, Rep 1",[1]; 24 h,32.8%
same,Reactivity Class,[1]; 20 min,Low
same,Reactivity Class,[1]; 24 h,Moderate
same,Skin reaction of sensitized patients,[2],clear localised contact dermatitis
same,"% of Cysteine depletion, Avg",[3]; 20 min,15.1%
same,"% of Cysteine depletion, Rep 2",[3]; 20 min,14%
same,"% of Cysteine depletion, Rep 3",[3]; 20 min,15.2%
same,"% of Cysteine depletion, Rep 1",[3]; 20 min,16.2%
same,"% of Cysteine depletion, Avg",[3]; 24 h,77.6%
same,"% of Cysteine depletion, Rep 2",[3]; 24 h,78%
same,"% of Cysteine depletion, Rep 3",[3]; 24 h,77.2%
same,"% of Cysteine depletion, Rep 1",[3]; 24 h,77.7%
same,Reactivity Class,[3]; 20 min,low and Low
same,Reactivity Class,[3]; 24 h,High
